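Following 48 hours of exposure in 96-well plates, responses at five concentrations were used to interpolate endpoints linearly. The concentration for 50% growth inhibition is given as GI50.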 The source made the active and inactive calls. No stated cut-off is given here; in the data, active = GI50 up to about 1.1 µM and inactive = higher.
Tests used:
Experiment in all cases: DTP human tumour cell line panel, 48 h
OVCAR-8 = tested on: OVCAR-8
786-0 = tested on: 786-0
SF-295 = tested on: SF-295
NCI-H23 = tested on: NCI-H23
TK-10 = tested on: TK-10
U-251 = tested on: U-251
SNB-19 = tested on: SNB-19
A549 = tested on: A549
HOP-62 = tested on: HOP-62
A498 = tested on: A498
IGROV-1 = tested on: IGROV-1
LOX IMVI = tested on: LOX IMVI
SN12C = tested on: SN12C
UACC-257 = tested on: UACC-257
NCI-H522 = tested on: NCI-H522
SR = tested on: SR
CCRF-CEM = tested on: CCRF-CEM
NCI-H226 = tested on: NCI-H226
EKVX = tested on: EKVX

| SMILES | GI50 (OVCAR-8) | GI50 (786-0) | GI50 (SF-295) | GI50 (NCI-H23) | GI50 (TK-10) | GI50 (U-251) | GI50 (SNB-19) | GI50 (A549) | GI50 (HOP-62) | GI50 (A498) | GI50 (IGROV-1) | GI50 (LOX IMVI) | GI50 (SN12C) | GI50 (UACC-257) | GI50 (NCI-H522) | GI50 (SR) | GI50 (CCRF-CEM) | GI50 (NCI-H226) | GI50 (EKVX) |
| --- | --- | --- | --- | --- | --- | --- | --- | --- | --- | --- | --- | --- | --- | --- | --- | --- | --- | --- | --- |
| CCOC(=O)NC(=O)c1cn(CC(=O)NCC(=O)NCC(=O)NCCCN2CCN(CCCNC(=O)CNC(=O)CNC(=O)Cn3cc(C(=O)NC(=O)OCC)c(=O)[nH]c3=O)CC2)c(=O)[nH]c1=O | > 100 µM (inactive) | > 100 µM (inactive) | > 100 µM (inactive) | > 100 µM (inactive) | > 100 µM (inactive) | > 100 µM (inactive) | > 100 µM (inactive) | > 100 µM (inactive) | > 100 µM (inactive) | > 100 µM (inactive) | > 100 µM (inactive) | > 100 µM (inactive) | > 100 µM (inactive) | > 100 µM (inactive) | > 100 µM (inactive) | > 100 µM (inactive) | > 100 µM (inactive) |  |  |
| COc1ccc(C(=C[N+](=O)[O-])c2ccc(OC)cc2)cc1 | 13 µM (inactive) | 20.8 µM (inactive) | 5.96 µM (inactive) | 12.7 µM (inactive) | 25.4 µM (inactive) | 11.3 µM (inactive) | 22.2 µM (inactive) | 13.6 µM (inactive) | 13.3 µM (inactive) | 8.2 µM (inactive) | 9.42 µM (inactive) | 9.44 µM (inactive) | 24 µM (inactive) | 8.59 µM (inactive) | 4.45 µM (inactive) | 4.38 µM (inactive) | 10.1 µM (inactive) | 24.3 µM (inactive) | 42.3 µM (inactive) |
| CC(=O)O[C@H]1CC[C@@]2(C)C(=CC[C@@H]3[C@@H]2CC[C@]2(C)NC(=O)/C(=C\c4ccccc4)C[C@@H]32)C1 | 20.5 µM (inactive) | 17.6 µM (inactive) | 17.8 µM (inactive) | 15.9 µM (inactive) | 29.9 µM (inactive) | 18.1 µM (inactive) | 16.1 µM (inactive) | 17.1 µM (inactive) | 13.2 µM (inactive) | 13.8 µM (inactive) | 21.4 µM (inactive) | 17 µM (inactive) | 18.7 µM (inactive) | 17.5 µM (inactive) | 15.6 µM (inactive) | 55 µM (inactive) | 16.5 µM (inactive) | 18.3 µM (inactive) | 14.9 µM (inactive) |
| Nc1nc2ccc(OCC(O)CN3CCCCC3)cc2[n+]([O-])n1 (centres undefined) | > 100 µM (inactive) | > 100 µM (inactive) | > 100 µM (inactive) | > 100 µM (inactive) | > 100 µM (inactive) | > 100 µM (inactive) | > 100 µM (inactive) | > 100 µM (inactive) |  | > 100 µM (inactive) |  |  | > 100 µM (inactive) | > 100 µM (inactive) | > 100 µM (inactive) | > 100 µM (inactive) | > 100 µM (inactive) | > 100 µM (inactive) |  |
| O=C(Nc1ccc(Sc2ccc(/N=N/c3c(O)c(S(=O)(=O)O)cc4cc(S(=O)(=O)O)ccc34)cc2)cc1)c1ccc(/N=N/c2c(O)ccc3c(S(=O)(=O)O)cc(S(=O)(=O)O)cc23)cc1 | 20.8 µM (inactive) | 37.6 µM (inactive) | 62.7 µM (inactive) | 19 µM (inactive) | 60.8 µM (inactive) | 41.2 µM (inactive) | 41.1 µM (inactive) | 28.4 µM (inactive) | 87.3 µM (inactive) | 26 µM (inactive) | 32.7 µM (inactive) | 15.5 µM (inactive) | 42.2 µM (inactive) | 11.2 µM (inactive) | 13.4 µM (inactive) | 21.6 µM (inactive) | 24.7 µM (inactive) | > 100 µM (inactive) | 17.3 µM (inactive) |
| CCOC(=O)C1=C(Nc2ccccc2)SC/C1=N\NC(=O)Cc1ccccc1 | > 100 µM (inactive) | > 100 µM (inactive) | > 100 µM (inactive) | > 100 µM (inactive) | > 100 µM (inactive) | > 100 µM (inactive) | > 100 µM (inactive) | > 100 µM (inactive) | > 100 µM (inactive) | > 100 µM (inactive) | > 100 µM (inactive) | > 100 µM (inactive) | > 100 µM (inactive) | > 100 µM (inactive) | > 100 µM (inactive) | > 100 µM (inactive) | > 100 µM (inactive) | > 100 µM (inactive) | > 100 µM (inactive) |
| CCOC(=O)CC(NC(=O)c1nc[nH]c1[N+](=O)[O-])C(=O)OCC (centres undefined) | 32.1 µM (inactive) | 52 µM (inactive) | 33.5 µM (inactive) | 22.6 µM (inactive) | 24 µM (inactive) | 15.3 µM (inactive) | 56.6 µM (inactive) | 60.1 µM (inactive) | 46.7 µM (inactive) | 61.7 µM (inactive) | 40.5 µM (inactive) | 60.1 µM (inactive) | 42.5 µM (inactive) | 34.1 µM (inactive) | 48.9 µM (inactive) | 44.3 µM (inactive) | 37.4 µM (inactive) | 23 µM (inactive) | 50.1 µM (inactive) |
| CCOC(=O)C1Cc2ccc3c4c(ccc(c24)C1)CC(C(=O)OCC)C3 | > 100 µM (inactive) | > 100 µM (inactive) | > 100 µM (inactive) | > 100 µM (inactive) | > 100 µM (inactive) | > 100 µM (inactive) | > 100 µM (inactive) | > 100 µM (inactive) | > 100 µM (inactive) | > 100 µM (inactive) | > 100 µM (inactive) | > 100 µM (inactive) | > 100 µM (inactive) | > 100 µM (inactive) | > 100 µM (inactive) | > 100 µM (inactive) | > 100 µM (inactive) | > 100 µM (inactive) | > 100 µM (inactive) |
| CCCCCCCCCC[S+]([O-])CC(CO)NC(=O)/C=C/c1c(C)nc(O)nc1O (centres undefined) |  | 10.9 µM (inactive) |  | 0.504 µM (active) | 1.76 µM (inactive) | 0.132 µM (active) |  | 2.22 µM (inactive) | 1.06 µM (active) | 1.09 µM (active) | 0.959 µM (active) | 0.877 µM (active) | 0.126 µM (active) | 1.33 µM (inactive) | 0.0938 µM (active) | 65.2 µM (inactive) | 0.136 µM (active) | 0.8 µM (active) | 0.774 µM (active) |
| CCOc1ccc(NCC2CC/C(=C\c3ccc(Cl)cc3)C2=O)cc1 (centres undefined) | > 38.3 µM (inactive) | 13 µM (inactive) | > 100 µM (inactive) | > 48.9 µM (inactive) | 34.6 µM (inactive) | 25.8 µM (inactive) | 49.1 µM (inactive) | > 100 µM (inactive) | > 100 µM (inactive) | > 49.5 µM (inactive) | > 36 µM (inactive) | 19.4 µM (inactive) | > 42.8 µM (inactive) | > 38.9 µM (inactive) | 6.25 µM (inactive) | 12.1 µM (inactive) | 9.29 µM (inactive) | > 100 µM (inactive) | 38.6 µM (inactive) |
| COc1cc2c(cc1OC)C1(c3ccccc3)ON=C(c3ccccc3)N1CS2 (centres undefined) |  | > 100 µM (inactive) | 60.1 µM (inactive) | > 100 µM (inactive) | > 100 µM (inactive) | > 100 µM (inactive) | > 100 µM (inactive) | > 100 µM (inactive) | > 100 µM (inactive) | > 100 µM (inactive) | > 100 µM (inactive) | > 100 µM (inactive) | > 100 µM (inactive) | > 100 µM (inactive) | > 100 µM (inactive) | 23.6 µM (inactive) | 39.3 µM (inactive) | > 100 µM (inactive) | > 100 µM (inactive) |
| COc1ccc2c(=O)c([Se]c3coc4cc(OC)ccc4c3=O)coc2c1 | 41.7 µM (inactive) | 44.5 µM (inactive) | 24.7 µM (inactive) | 34.9 µM (inactive) | > 100 µM (inactive) | 42.8 µM (inactive) | > 100 µM (inactive) | 32.6 µM (inactive) | > 100 µM (inactive) | 57.3 µM (inactive) | 34.4 µM (inactive) | > 100 µM (inactive) | 54.5 µM (inactive) | > 100 µM (inactive) | > 100 µM (inactive) | 44.1 µM (inactive) | 46.7 µM (inactive) | 52 µM (inactive) | 46.8 µM (inactive) |
| CN/C(=N\C#N)N(Cc1ccccc1)Cc1ccccc1 | > 100 µM (inactive) | > 100 µM (inactive) | > 100 µM (inactive) | > 100 µM (inactive) | > 100 µM (inactive) | > 100 µM (inactive) | > 100 µM (inactive) | > 100 µM (inactive) | > 100 µM (inactive) | > 100 µM (inactive) | > 100 µM (inactive) | > 100 µM (inactive) | > 100 µM (inactive) | > 100 µM (inactive) | > 100 µM (inactive) | > 100 µM (inactive) | > 100 µM (inactive) | > 100 µM (inactive) | > 100 µM (inactive) |
| N/N=C(/C(=O)Nc1cccc(Cl)c1)C(C(=O)c1ccc(O)cc1O)C1OC(=O)c2ccccc21 (centres undefined) | > 100 µM (inactive) | > 100 µM (inactive) | 85.9 µM (inactive) | 65.5 µM (inactive) | > 100 µM (inactive) | 46.9 µM (inactive) | 68.2 µM (inactive) | > 100 µM (inactive) | > 100 µM (inactive) | 25.5 µM (inactive) | > 100 µM (inactive) | 87.7 µM (inactive) | > 100 µM (inactive) | > 100 µM (inactive) | 71 µM (inactive) | 40.4 µM (inactive) | 35.1 µM (inactive) | 95.1 µM (inactive) | > 100 µM (inactive) |
| COc1ccc(CN(O)C2C(CO)OC(n3cc(I)c(=O)[nH]c3=O)C2O)cc1 (centres undefined) | > 100 µM (inactive) | > 100 µM (inactive) | > 100 µM (inactive) | > 100 µM (inactive) | > 100 µM (inactive) | > 100 µM (inactive) | > 100 µM (inactive) | > 100 µM (inactive) | > 100 µM (inactive) | > 100 µM (inactive) | > 100 µM (inactive) | > 100 µM (inactive) | > 100 µM (inactive) | > 100 µM (inactive) | > 100 µM (inactive) | > 100 µM (inactive) | > 100 µM (inactive) |  | > 100 µM (inactive) |

— ChEMBL document CHEMBL1201862, “PubChem BioAssay data set” (2004)
